Results: patent US20220395487A1, “RIG-I INNATE IMMUNE RECEPTOR ANTAGONISTS AND METHODS OF USING SAME” (YALE UNIVERSITY, priority 2019, published 2022)

Assays:
RIG-I [1] = molecular target: T1, RIG-I (Homo sapiens, UniProt O95786); test: IFN-β/Firefly dual-luciferase reporter assay in HEK 293T cells transfected with hRIG-I; assay type: cell-based; details: HEK293T cells, SLR14 challenge
T1 sequence (O95786 1-925): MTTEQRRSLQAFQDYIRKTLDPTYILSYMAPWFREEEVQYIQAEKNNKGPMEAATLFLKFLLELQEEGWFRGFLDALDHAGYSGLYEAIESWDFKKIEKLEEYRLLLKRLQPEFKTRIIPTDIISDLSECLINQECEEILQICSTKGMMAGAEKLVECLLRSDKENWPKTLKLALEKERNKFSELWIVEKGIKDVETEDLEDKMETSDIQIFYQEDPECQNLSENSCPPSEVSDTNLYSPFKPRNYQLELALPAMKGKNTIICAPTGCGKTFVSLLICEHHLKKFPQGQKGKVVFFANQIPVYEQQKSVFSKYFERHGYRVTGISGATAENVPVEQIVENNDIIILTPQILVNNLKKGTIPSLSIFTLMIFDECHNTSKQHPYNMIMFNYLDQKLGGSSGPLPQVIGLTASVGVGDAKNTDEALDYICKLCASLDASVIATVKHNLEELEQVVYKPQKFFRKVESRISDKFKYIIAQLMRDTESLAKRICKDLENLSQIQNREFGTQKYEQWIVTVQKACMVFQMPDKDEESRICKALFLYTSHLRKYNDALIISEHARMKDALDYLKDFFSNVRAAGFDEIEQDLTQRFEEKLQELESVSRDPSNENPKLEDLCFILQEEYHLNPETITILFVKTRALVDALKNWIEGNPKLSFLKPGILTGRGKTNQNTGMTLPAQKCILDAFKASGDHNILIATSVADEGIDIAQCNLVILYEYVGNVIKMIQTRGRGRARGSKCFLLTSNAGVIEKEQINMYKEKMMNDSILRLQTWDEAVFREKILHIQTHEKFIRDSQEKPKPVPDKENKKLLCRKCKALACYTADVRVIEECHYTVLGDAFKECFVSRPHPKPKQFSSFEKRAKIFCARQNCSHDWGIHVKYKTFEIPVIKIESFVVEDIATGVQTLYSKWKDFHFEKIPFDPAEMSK
Protocol: Two different assays were used for evaluating RIG-I inhibition in cells. In the first assay, HEK 293T cells were used to test the influence of compounds on RIG-I signaling activity while simultaneously reporting on relative toxicity. In this case, inhibitor compounds were introduced via growth media replacement rather than by direct addition to cell plates. Specifically, HEK 293T cells (which express RIG-I only under the control of a transfected plasmid) were grown and maintained in T75 flasks containing Dulbecco's Modified Eagle Medium, DMEM (Life Technologies) supplemented with 10% heat-inactivated fetal bovine serum (Hyclone) and non-essential amino acids (Life Technologies). For the IFN-β induction assays, 0.5 ml of cells at 65,000 cells/ml was placed (seeded) in 24-well plates. After 24 h, each well of cells was transfected with 5 ng WT pUNO-hRIG-I (Invivogen), 6 ng pRL-TK constitutive Renilla luciferase reporter plasmid (Promega) and 150 ng of an IFN-β/Firefly luciferase reporter plasmid using the Lipofectamine 2000 transfection reagent (Life Technologies) following the manufacturer's protocol. Protein expression was allowed to proceed for 24 hours. In parallel, a six-point dilution series of each compound of interest was made in a DMSO vehicle and then diluted further into DMEM such that a constant DMSO concentration of 1% is maintained over the entire drug dilution. The DMEM growth media was aspirated from each well of cells and replaced with DMEM that contains the drug. After 30 minutes, the cells were challenged by transfection with 1 μg of the synthetic stem-loop RNA (SLR14) in Lipofectamine 2000. After 5-6 hours, cells were harvested for luminescence analysis in the following manner: Growth media was aspirated from each well, and 100 μl of passive lysis buffer (Promega) was added. Lysis proceeded for 15 min at room temperature. Lysates were clarified by centrifugation, and 20 μl samples of the supernatant were transferred to a 96-well assay plate for analysis using the Dual-Luciferase Reporter Assay System (Promega). Luminescence was measured using a Biotek Synergy H1 plate reader. The resulting Firefly luciferase activity (i.e. the induction of IFN-0) was normalized to the activity of the constitutively expressed Renilla luciferase to account for differences in confluency, transfection efficiency and cell viability across sample wells.

RIG-I [2] = molecular target: T1, RIG-I; test: qRT-PCR of IFN and ISG levels in A549 cells with endogenous RIG-I; assay type: cell-based; details: SLR14 challenge, qRT-PCR normalized to HPRT
Protocol: (§1) In the second assay, inhibition of RIG-I that is endogenously expressed in A549 cells was evaluated by monitoring IFN and ISG levels by qRT-PCR. A549 cells were propagated in T75 flasks containing Dulbecco's Modified Eagle Medium, DMEM, (Life Technologies) supplemented with 10% heat-inactivated fetal bovine serum (Hyclone) and Non-Essential Amino Acids (Life Technologies). For the assay, 0.5 ml of cells at 100,000 cells/ml was seeded in 24-well plates. After 24 h, DMEM growth media was replaced with media containing drug, as described above for the IFN induction assay using HEK293T cells. After 30 minutes, the cells were transfected with 1 μg of the synthetic stem-loop RNA (SLR14), using the Lipofectamine 2000 transfection reagent. After 5-6 hours, cells were harvested and total RNA was isolated using E.Z.N.A total RNA isolation kit (Omega Bio-tek), following the manufacturer's instructions. Genomic DNA contamination was removed by DNase I treatment (Omega Bio-tek) directly on the Mini column. Total RNA was reverse-transcribed into cDNA using iScript Reverse Transcription Supermix (Bio-RAD) according to the manufacturer's instructions. […] Each sample was analyzed in triplicate and normalized to HPRT expression. Gene expression quantification was performed according to the Livak ΔΔCt method.

A549 cells = test: qRT-PCR of metabolism and stress marker genes (ACTB, GAPDH, p21, BAX) in A549 cells; assay type: cell-based, human; details: p21, BAX by qRT-PCR
Protocol: as §1, with “instructions.” for “instructions. Genomic DNA contamination was removed by DNase I treatment (Omega Bio-tek) directly on the Mini column. Total RNA was reverse-transcribed into cDNA using iScript Reverse Transcription Supermix (Bio-RAD) according to the manufacturer's instructions.”
These experiments were consistent with a target-specific response to the compounds. […] To evaluate interference with cell growth or viability, genes that represent markers of cell metabolism and stress response (ACTB, GAPDH, p21, BAX) were also simultaneously monitored. […]

## CCC1(CC)C(=O)N=C2C1=C(OCc1ccccc1)C(=O)c1ccccc12 [RIG012, 4-Benzyloxy-3,3-diethyl-2H,3H,5H-benzo[g]indole-2,5-dione]
RIG-I [1]
  inhibition of RIG-I signaling / IFN induction, result in words: potent, dose-dependent inhibition of RIG-I signaling
RIG-I [1]; compound in growth medium, read-out: IC50, inhibition of RIG-I signaling (IFN induction luciferase)
  IC50: 1.25 µM
RIG-I [2]
  effect on IFN-β and ISG hRsad2 expression: potent, dose-dependent effect
A549 cells
  expression of genes involved in cell viability and metabolism: unaffected
